# According to patent publication US10336739B2, “4-hydroxy-3-(heteroaryl)pyridine-2-one APJ agonists” (BRISTOL-MYERS SQUIBB COMPANY, priority 2015, dated 2019):
# Target: human APJ receptor (Homo sapiens (Human), UniProt P35414)
# Experiment: Intracellular cAMP accumulation assay (APJ hcAMP, HTRF)
# Type: cell-based
# Conditions: HEK293 cells stably expressing human APJ receptor; inhibition of forskolin-mediated cAMP production; read-out: Human APJ cAMP EC50 Potency range
# How it was run: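 HEK293 cells stably expressing human APJ, 5,000 per well, exposed to compound with […] IBMX and 2 μM forskolin for 30 minutes at room temperature. cAMP measured by HTRF after lysis and 60 min detection incubation. EC50 from sigmoidal variable-slope fits of inhibition of forskolin-induced cAMP, quantified against a cAMP standard curve.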
# Chain of human APJ receptor (P35414 whole entry): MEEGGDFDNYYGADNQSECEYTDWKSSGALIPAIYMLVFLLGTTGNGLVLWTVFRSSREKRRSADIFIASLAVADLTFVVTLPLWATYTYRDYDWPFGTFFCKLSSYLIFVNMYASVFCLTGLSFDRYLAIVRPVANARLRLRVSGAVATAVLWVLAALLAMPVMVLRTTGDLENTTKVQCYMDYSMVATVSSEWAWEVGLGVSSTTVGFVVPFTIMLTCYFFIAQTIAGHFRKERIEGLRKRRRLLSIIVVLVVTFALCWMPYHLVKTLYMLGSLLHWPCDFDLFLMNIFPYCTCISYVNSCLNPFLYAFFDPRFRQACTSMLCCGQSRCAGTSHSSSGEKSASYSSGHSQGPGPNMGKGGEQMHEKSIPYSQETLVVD
row,SMILES,EC50 [nM]
1,"CCCCc1nc(O)c(-c2nnc(Cc3nnc(-c4ccc(Cl)cc4)o3)o2)c(O)c1-c1c(OC)cccc1OC [Example 205, 6-butyl-3-(5-{[5-(4-chlorophenyl)-1,3,4-oxadiazol-2-yl]methyl}-1,3,4-oxadiazol-2-yl)-5-(2,6-dimethoxyphenyl)pyridine-2,4-diol]",10 to 100
2,"CCCCc1nc(O)c(-c2nnc(Cc3noc4cccnc34)o2)c(O)c1-c1c(OC)cccc1OC [Example 227, 6-butyl-5-(2,6-dimethoxyphenyl)-3-(5-{[1,2]oxazolo[4,5-b]pyridin-3-ylmethyl}-1,3,4-oxadiazol-2-yl)pyridine-2,4-diol]",0.01 to 10
3,"CCNCc1[nH]c(=O)c(-c2nnc(Cc3ccc(Cl)cn3)o2)c(O)c1-c1c(OC)cccc1OC [Example 230, 3-{5-[(5-chloropyridin-2-yl)methyl]-1,3,4-oxadiazol-2-yl}-5-(2,6-dimethoxyphenyl)-6-[(ethylamino)methyl]pyridine-2,4-diol]",0.01 to 10
4,"CCOCc1nc(O)c(-c2nnc(Cc3ccc(Cl)cc3)o2)c(O)c1-c1c(O)cccc1OC (single isomer, unassigned) [Example 222, 3-{5-[(4-chlorophenyl)methyl]-1,3,4-oxadiazol-2-yl}-6-(ethoxymethyl)-5-(2-hydroxy-6-methoxyphenyl)pyridine-2,4-diol]",0.01 to 10
5,"CCCCc1[nH]c(=O)c(-c2nnc(Cc3csc(C)n3)o2)c(O)c1-c1cccc(CC)c1 [Example 137, 6-butyl-5-(3-ethylphenyl)-4-hydroxy-3-{5-[(2-methyl-1,3-thiazol-4-yl)methyl]-1,3,4-oxadiazol-2-yl}-1,2-dihydropyridin-2-one]",10 to 100
6,"CCCCc1nc(O)c(-c2nnc(CC(=O)N(CC)CC)o2)c(O)c1-c1c(OC)cccc1OC [Example 177, 2-{5-[6-butyl-5-(2,6-dimethoxyphenyl)-2,4-dihydroxypyridin-3-yl]-1,3,4-oxadiazol-2-yl}-N,N-diethylacetamide]",0.01 to 10

# Same assay, conditions: HEK293 cells stably expressing human APJ receptor; inhibition of forskolin-mediated cAMP production; read-out: hAPJ cAMP EC50 (nM) Potency range
row,SMILES,EC50 [nM]
1,"CCOCc1nc(O)c(-c2nnc(Cc3ccc(Cl)cn3)s2)c(O)c1-c1c(OC)cccc1OC [Example 232, 3-{5-[(5-chloropyridin-2-yl)methyl]-1,3,4-thiadiazol-2-yl}-5-(2,6-dimethoxyphenyl)-6-(ethoxymethyl) pyridine-2,4-diol]",0.01 to 10
2,"CCCCc1nc(O)c(-c2nnc(CC(=O)NCc3cc(C(C)C)no3)o2)c(O)c1-c1c(OC)cccc1OC [Example 272, 2-{5-[6-butyl-5-(2,6-dimethoxyphenyl)-2,4-dihydroxy-pyridin-3-yl]-1,3,4-oxadiazol-2-yl}-N-{[3-(propan-2-yl)-1,2-oxazol-5-yl]methyl} acetamide]",0.01 to 10
3,"CCOCc1nc(O)c(-c2nnc(Cc3ccc(Cl)cn3)o2)c(O)c1-c1c(O)cccc1OC [Example 275, 3-{5-[(5-chloropyridin-2-yl)methyl]-1,3,4-oxadiazol-2-yl}-6-(ethoxymethyl)-5-(2-hydroxy-6-methoxyphenyl) pyridine-2,4-diol]",10 to 100
4,"CCOCc1nc(O)c(-c2nnc(Cc3noc4ccccc34)o2)c(O)c1-c1ccccc1OC [Example 248, 3-{5-[(1,2-benzoxazol-3-yl)methyl]-1,3,4-oxadiazol-2-yl}-6-(ethoxymethyl)-5-(2-methoxyphenyl) pyridine-2,4-diol]",0.01 to 10
5,"CCCCc1nc(O)c(-c2nnc(CC(=O)NCc3ccc(Cl)cc3)o2)c(O)c1-c1c(OC)cccc1OC [Example 266, 2-{5-[6-butyl-5-(2,6-dimethoxyphenyl)-2,4-dihydroxy-pyridin-3-yl]-1,3,4-oxadiazol-2-yl}-N-[(4-chlorophenyl)methyl]acetamide]",0.01 to 10

# Same assay, conditions: HEK293 cells stably expressing human APJ receptor; inhibition of forskolin-mediated cAMP production; read-out: hAPJ cAMP EC50 Potency range
row,SMILES,EC50 [nM]
1,"CCCCc1nc(O)c(-c2nc(Cc3ccc(Cl)cc3)no2)c(O)c1-c1c(OC)cccc1OC [Example 203, 6-butyl-3-{3-[(4-chlorophenyl)methyl]-1,2,4-oxadiazol-5-yl}-5-(2,6-dimethoxyphenyl) pyridine-2,4-diol]",10 to 100
2,"CCCCc1nc(O)c(-c2nnc(Cc3nnc(-c4cccnc4)o3)o2)c(O)c1-c1c(OC)cccc1OC [Example 211, 6-butyl-5-(2,6-dimethoxyphenyl)-3-(5-{[5-(pyridin-3-yl)-1,3,4-oxadiazol-2-yl]methyl}-1,3,4-oxadiazol-2-yl)pyridine-2,4-diol]",10 to 100
3,"CCCCc1nc(O)c(-c2nnc(C(OC)c3ccccc3)o2)c(O)c1-c1c(OC)cccc1OC (stereo not shown) [Example 45, 6-butyl-5-(2,6-dimethoxyphenyl)-3-{5-[methoxy(phenyl)methyl]-1,3,4-oxadiazol-2-yl}pyridine-2,4-diol]",10 to 100
4,"CCCCc1nc(O)c(-c2nnc(Cc3noc4ccccc34)o2)c(O)c1-c1c(C)cc(C)cc1C [Example 225, 3-[5-(1,2-benzoxazol-3-ylmethyl)-1,3,4-oxadiazol-2-yl]-6-butyl-5-(2,4,6-trimethylphenyl) pyridine-2,4-diol]",10 to 100
5,"COc1cccc(OC)c1-c1c(C2CC2)[nH]c(=O)c(-c2nnc(Cc3ccc(Cl)cc3)o2)c1O [Example 93, 3-{5-[(4-chlorophenyl)methyl]-1,3,4-oxadiazol-2-yl}-6-cyclopropyl-5-(2,6-dimethoxyphenyl) pyridine-2,4-diol]",10 to 100
6,"CCCCNC(=O)Cc1nnc(-c2c(O)nc(CCCC)c(-c3c(OC)cccc3OC)c2O)o1 [Example 197, N-butyl-2-{5-[6-butyl-5-(2,6-dimethoxyphenyl)-2,4-dihydroxypyridin-3-yl]-1,3,4-oxadiazol-2-yl}acetamide]",0.01 to 10
7,"CCOCc1nc(O)c(-c2nnc(Cc3ccc(F)cc3)o2)c(O)c1-c1c(OC)cccc1OC [Example 135, 5-(2,6-dimethoxyphenyl)-6-(ethoxymethyl)-3-{5-[(4-fluorophenyl)methyl]-1,3,4-oxadiazol-2-yl}pyridine-2,4-diol]",0.01 to 10
8,"CCCCc1[nH]c(=O)c(-c2nnc(Cc3csc(C)n3)o2)c(O)c1-c1cccc(OC)c1 [Example 151, 6-butyl-4-hydroxy-5-(3-methoxyphenyl)-3-{5-[(2-methyl-1,3-thiazol-4-yl)methyl]-1,3,4-oxadiazol-2-yl}-1,2-dihydropyridin-2-one]",0.01 to 10
9,"CCCCc1nc(O)c(-c2nnc(Cc3ccc(F)c(F)c3)o2)c(O)c1C1=CCCCC1 [Example 144, 6-butyl-5-(cyclohex-1-en-1-yl)-3-{5-[(3,4-difluorophenyl)methyl]-1,3,4-oxadiazol-2-yl}pyridine-2,4-diol]",10 to 100
10,"CCCCc1nc(O)c(-c2nnc(C(C)(C)Cc3ccccc3)o2)c(O)c1-c1c(OC)cccc1OC [Example 64, 6-butyl-5-(2,6-dimethoxyphenyl)-3-[5-(2-methyl-1-phenylpropan-2-yl)-1,3,4-oxadiazol-2-yl]pyridine-2,4-diol]",0.01 to 10
11,"CCCCc1nc(O)c(-c2nnc(Cc3ccc(OC)cc3)o2)c(O)c1-c1c(OC)cccc1OC [Example 9, 6-butyl-5-(2,6-dimethoxyphenyl)-3-{5-[(4-methoxyphenyl)methyl]-1,3,4-oxadiazol-2-yl}pyridine-2,4-diol]",0.01 to 10
12,"CCCCc1nc(O)c(-c2nnc(Cc3ccc(F)c(F)c3)o2)c(O)c1-c1cccc(OCc2ccccc2)c1 [Example 142, 5-[3-(benzyloxy)phenyl]-6-butyl-3-{5-[(3,4-difluorophenyl)methyl]-1,3,4-oxadiazol-2-yl}pyridine-2,4-diol]",10 to 100
13,"CCOCc1nc(O)c(-c2nnc(Cn3ccc4ccccc43)o2)c(O)c1-c1c(OC)cccc1OC [Example 136, 5-(2,6-dimethoxyphenyl)-6-(ethoxymethyl)-3-[5-(1H-indol-1-ylmethyl)-1,3,4-oxadiazol-2-yl]pyridine-2,4-diol]",10 to 100
14,"CCCCc1nc(O)c(-c2nnc(CC(=O)NCC)o2)c(O)c1-c1c(OC)cccc1OC [Example 187, 2-{5-[6-butyl-5-(2,6-dimethoxyphenyl)-2,4-dihydroxypyridin-3-yl]-1,3,4-oxadiazol-2-yl}-N-ethylacetamide]",0.01 to 10
15,"CCOCc1nc(O)c(-c2nnc(Cc3cnn(C)c3)o2)c(O)c1-c1c(OC)cccc1OC [Example 130, 5-(2,6-dimethoxyphenyl)-6-(ethoxymethyl)-3-{5-[(1-methyl-1H-pyrazol-4-yl)methyl]-1,3,4-oxadiazol-2-yl}pyridine-2,4-diol]",10 to 100
16,"CCOCc1nc(O)c(-c2nnc(Cc3noc4ccccc34)o2)c(O)c1-c1c(OC)cc(F)cc1OC [Example 213, 3-[5-(1,2-benzoxazol-3-ylmethyl)-1,3,4-oxadiazol-2-yl]-6-(ethoxymethyl)-5-(4-fluoro-2,6-dimethoxyphenyl) pyridine-2,4-diol]",0.01 to 10
17,"CCCCc1nc(O)c(-c2nnc(CCc3ccc(F)c(F)c3)o2)c(O)c1-c1c(OC)cccc1OC [Example 74, 6-butyl-3-{5-[2-(3,4-difluorophenyl)ethyl]-1,3,4-oxadiazol-2-yl}-5-(2,6-dimethoxyphenyl) pyridine-2,4-diol]",0.01 to 10
18,"CCCCc1nc(O)c(-c2nnc(CC(=O)NC(C)C)o2)c(O)c1-c1c(OC)cccc1OC [Example 181, 2-{5-[6-butyl-5-(2,6-dimethoxyphenyl)-2,4-dihydroxypyridin-3-yl]-1,3,4-oxadiazol-2-yl}-N-(propan-2-yl)acetamide]",0.01 to 10
19,"CCCCc1nc(O)c(-c2nnc(COc3ccc(Cl)cc3)o2)c(O)c1-c1c(OC)cccc1OC [Example 53, 6-butyl-3-[5-(4-chlorophenoxy-methyl)-1,3,4-oxadiazol-2-yl]-5-(2,6-dimethoxyphenyl) pyridine-2,4-diol]",10 to 100
20,"CCCCc1nc(O)c(-c2nnc(CCc3nccn3C)o2)c(O)c1-c1c(OC)cccc1OC [Example 29, 6-butyl-5-(2,6-dimethoxyphenyl)-3-{5-[2-(1-methyl-1H-imidazol-2-yl)ethyl]-1,3,4-oxadiazol-2-yl}pyridine-2,4-diol]",0.01 to 10
